According to PMC6724510 (Molecular Biology of the Cell, 2019):

Molecular target: T1, Spf1p (Saccharomyces cerevisiae, UniProt P39986)
T1 sequence (P39986 1-1215): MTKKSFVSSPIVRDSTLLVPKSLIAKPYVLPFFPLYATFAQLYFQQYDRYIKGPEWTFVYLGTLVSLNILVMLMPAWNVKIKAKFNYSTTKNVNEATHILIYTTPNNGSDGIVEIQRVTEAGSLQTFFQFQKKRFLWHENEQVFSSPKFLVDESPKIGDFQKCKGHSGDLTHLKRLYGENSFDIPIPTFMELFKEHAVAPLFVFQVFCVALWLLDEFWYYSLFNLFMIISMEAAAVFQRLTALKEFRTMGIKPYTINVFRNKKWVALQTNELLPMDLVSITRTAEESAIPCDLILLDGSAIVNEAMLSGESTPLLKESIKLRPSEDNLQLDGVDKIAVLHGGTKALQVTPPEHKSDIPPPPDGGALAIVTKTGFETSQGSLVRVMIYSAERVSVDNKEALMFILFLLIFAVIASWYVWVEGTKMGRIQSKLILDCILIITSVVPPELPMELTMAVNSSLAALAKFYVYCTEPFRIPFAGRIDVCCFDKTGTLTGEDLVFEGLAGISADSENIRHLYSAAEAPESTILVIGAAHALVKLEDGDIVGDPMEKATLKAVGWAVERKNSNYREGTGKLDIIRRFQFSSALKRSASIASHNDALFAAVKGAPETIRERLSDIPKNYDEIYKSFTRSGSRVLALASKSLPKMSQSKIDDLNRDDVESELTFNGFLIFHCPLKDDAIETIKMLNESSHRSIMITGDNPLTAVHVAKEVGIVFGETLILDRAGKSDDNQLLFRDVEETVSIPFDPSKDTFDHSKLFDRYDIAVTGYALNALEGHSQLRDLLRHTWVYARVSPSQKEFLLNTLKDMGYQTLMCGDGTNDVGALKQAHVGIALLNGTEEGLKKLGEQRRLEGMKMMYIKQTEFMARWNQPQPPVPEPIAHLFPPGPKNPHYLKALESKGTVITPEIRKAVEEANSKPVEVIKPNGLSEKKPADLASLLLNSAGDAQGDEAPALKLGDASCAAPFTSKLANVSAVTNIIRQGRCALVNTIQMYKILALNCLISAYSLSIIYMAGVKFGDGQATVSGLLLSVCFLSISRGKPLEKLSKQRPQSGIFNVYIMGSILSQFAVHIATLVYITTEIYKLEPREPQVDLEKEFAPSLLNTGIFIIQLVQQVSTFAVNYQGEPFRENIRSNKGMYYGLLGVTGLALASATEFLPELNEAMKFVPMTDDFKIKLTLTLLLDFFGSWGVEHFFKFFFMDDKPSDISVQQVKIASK
Assay: inhibition of ATP hydrolysis by purified Spf1p
Format: biochemical

[O]=[V]([OH])([OH])[OH] [vanadate]
Ki: 9.8 ± 2.4 µM
